This experiment addresses Rho-associated protein kinase 2 (Homo sapiens, UniProt O75116). Put plainly: Inhibition of ROCK2 (unknown origin) using STK2 substrate after 4 hrs by HTRF mode.

pIC50: −log10 of the molar value.

Rho-associated protein kinase 2, sequence (O75116 whole entry): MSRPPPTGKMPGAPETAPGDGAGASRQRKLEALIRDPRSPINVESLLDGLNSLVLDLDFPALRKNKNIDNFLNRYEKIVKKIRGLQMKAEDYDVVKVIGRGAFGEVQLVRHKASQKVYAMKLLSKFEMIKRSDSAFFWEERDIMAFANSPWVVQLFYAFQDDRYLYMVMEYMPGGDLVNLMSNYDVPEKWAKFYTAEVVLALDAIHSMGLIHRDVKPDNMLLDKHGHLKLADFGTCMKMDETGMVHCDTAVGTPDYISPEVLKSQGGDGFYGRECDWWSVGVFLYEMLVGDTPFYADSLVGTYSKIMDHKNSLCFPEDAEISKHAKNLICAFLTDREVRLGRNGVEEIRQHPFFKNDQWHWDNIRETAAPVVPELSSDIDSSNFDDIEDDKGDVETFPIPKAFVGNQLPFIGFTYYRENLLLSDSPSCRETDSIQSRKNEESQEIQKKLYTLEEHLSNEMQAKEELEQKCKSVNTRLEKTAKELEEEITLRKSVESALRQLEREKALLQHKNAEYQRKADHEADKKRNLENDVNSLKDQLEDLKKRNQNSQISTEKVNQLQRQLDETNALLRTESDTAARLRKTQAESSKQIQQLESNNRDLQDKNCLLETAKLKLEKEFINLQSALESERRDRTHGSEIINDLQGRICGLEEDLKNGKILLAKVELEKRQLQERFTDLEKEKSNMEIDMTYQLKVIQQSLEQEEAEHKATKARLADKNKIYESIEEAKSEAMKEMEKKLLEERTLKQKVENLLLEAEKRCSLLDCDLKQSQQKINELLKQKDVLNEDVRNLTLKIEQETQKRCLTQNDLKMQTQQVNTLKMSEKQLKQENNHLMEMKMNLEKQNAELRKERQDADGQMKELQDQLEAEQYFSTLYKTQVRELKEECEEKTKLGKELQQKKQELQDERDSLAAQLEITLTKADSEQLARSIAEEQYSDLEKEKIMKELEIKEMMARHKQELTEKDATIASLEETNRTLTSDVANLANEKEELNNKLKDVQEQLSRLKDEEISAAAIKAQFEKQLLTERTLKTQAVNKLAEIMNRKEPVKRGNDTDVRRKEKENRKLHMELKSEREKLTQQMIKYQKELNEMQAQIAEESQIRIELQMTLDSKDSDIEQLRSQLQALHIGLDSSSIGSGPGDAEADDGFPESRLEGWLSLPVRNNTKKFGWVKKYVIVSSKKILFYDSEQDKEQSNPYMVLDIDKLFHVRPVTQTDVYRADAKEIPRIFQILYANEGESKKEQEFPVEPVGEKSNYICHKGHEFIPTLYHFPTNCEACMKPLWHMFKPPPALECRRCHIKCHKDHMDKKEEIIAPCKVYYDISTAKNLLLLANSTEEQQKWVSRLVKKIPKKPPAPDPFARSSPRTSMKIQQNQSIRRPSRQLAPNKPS

As for `CNC(=O)N(CCO)c1ccc(-c2cn[nH]c2)cc1`, the pIC50 is 6.12.

The values above are taken from BindingDB's records for doi:10.1016/j.bmc.2015.03.047 (Shanghai Institute of Technology, 2015).
